Article PMC3489957 (Bioorganic & medicinal chemistry, 2012)

Legend:
[1] = in vitro; conditions: human, lymphocytic CEM cells
[2] = Cytotoxicity in Vero cells; type: cell-based; conditions: African green monkey, Vero kidney cells
[3] = Cytotoxicity in uninfected PHA-stimulated human PBM cells; type: cell-based; conditions: uninfected phytohemagglutinin-stimulated PBM cells

| Compound | IC50 [1] [µM] | IC50 [2] [µM] | IC50 [3] [µM] |
| --- | --- | --- | --- |
| CC(C)(C)OC(=O)N1[C@H](CO)CC(F)(F)[C@@H]1n1cnc2ncnc(N)c21 [Analogue 32, 7-[(2R,5S)-N-tert-Butyloxycarbonyl-3,3-difluoro-5-(hydroxymethyl)pyrrolidin-2-yl]-adenine] | > 100 | > 100 | > 100 |
| CC(C)(C)OC(=O)N1[C@H](CO)CC(F)(F)[C@@H]1n1cnc2c(Cl)ncnc21 [Analogue 26, 9-[(2R,5S)-N-tert-Butyloxycarbonyl-3,3-difluoro-5-(hydroxymethyl)pyrrolidin-2-yl]-6-chloropurine] |  | > 100 |  |
| CC(C)(C)OC(=O)N1[C@H](CO)CC(F)(F)[C@@H]1n1cnc2c(N)ncnc21 [Analogue 30, 9-[(2R,5S)-N-tert-Butyloxycarbonyl-3,3-difluoro-5-(hydroxymethyl)pyrrolidin-2-yl]-adenine] | > 100 | > 100 | > 100 |
| CC(C)(C)OC(=O)N1[C@H](CO)CC(F)(F)[C@H]1n1cnc2ncnc(N)c21 [Analogue 33, 7-[(2S,5S)-N-tert-Butyloxycarbonyl-3,3-difluoro-5-(hydroxymethyl)pyrrolidin-2-yl]-adenine] | > 100 | > 100 | > 100 |
| CC(C)(C)OC(=O)N1[C@H](CO)CC(F)(F)[C@H]1n1cnc2ncnc(Cl)c21 [Analogue 29, 7-[(2S,5S)-N-tert-Butyloxycarbonyl-3,3-difluoro-5-(hydroxymethyl)pyrrolidin-2-yl]-6-chloropurine] |  | > 100 |  |
| CC(C)(C)OC(=O)N1[C@H](CO)CC(F)(F)[C@H]1n1cnc2c(Cl)ncnc21 [Analogue 27, 9-[(2S,5S)-N-tert-Butyloxycarbonyl-3,3-difluoro-5-(hydroxymethyl)pyrrolidin-2-yl]-6-chloropurine] |  | > 100 |  |
| CC(C)(C)OC(=O)N1[C@H](CO)CC(F)(F)[C@@H]1n1cnc2ncnc(Cl)c21 [Analogue 28, 7-[(2R,5S)-N-tert-Butyloxycarbonyl-3,3-difluoro-5-(hydroxymethyl)pyrrolidin-2-yl]-6-chloropurine] |  | > 100 |  |
| CC(C)(C)OC(=O)N1[C@H](CO)CC(F)(F)[C@H]1n1cnc2c(N)ncnc21 [Analogue 31, 9-[(2S,5S)-N-tert-Butyloxycarbonyl-3,3-difluoro-5-(hydroxymethyl)pyrrolidin-2-yl]-adenine] | > 100 | > 100 | > 100 |

Continued, in another order:

| IC50 [1] [µM] | Compound | IC50 [2] [µM] | IC50 [3] [µM] |
| --- | --- | --- | --- |
| > 100 | CC(C)(C)OC(=O)N1[C@H](CO)CC(F)(F)[C@@H]1n1cc(F)c(=O)[nH]c1=O [Analogue 19d, 1-[(2R,5S)-N-tert-Butyloxycarbonyl-3,3-difluoro-5-(hydroxymethyl)pyrrolidin-2-yl]-5-fluorouracil] | > 100 |  |
| > 100 | CC(C)(C)OC(=O)N1[C@H](CO)CC(F)(F)[C@@H]1n1ccc(=O)[nH]c1=O [Analogue 19a, 1-[(2R,5S)-N-tert-butyloxycarbonyl-3,3-difluoro-5-(hydroxymethyl)pyrrolidin-2-yl]-uracil] |  |  |
| > 100 | CC(C)(C)OC(=O)N1[C@H](CO)CC(F)(F)[C@H]1n1ccc(=O)[nH]c1=O [Analogue 18a, 1-[(2S,5S)-N-tert-Butyloxycarbonyl-3,3-difluoro-5-(hydroxymethyl)pyrrolidin-2-yl]-uracil] | > 100 |  |
| > 100 | CC(C)(C)OC(=O)N1[C@H](CO)CC(F)(F)[C@H]1n1cc(F)c(=O)[nH]c1=O [Analogue 18d, 1-[(2S,5S)-N-tert-Butyloxycarbonyl-3,3-difluoro-5-(hydroxymethyl)pyrrolidin-2-yl]-5-fluorouracil] | > 100 |  |
